Results published in PubChem BioAssay (NCI).
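Each compound was tested at five concentrations against cells in 96-well plates for 48 hours. Definition used: TGI = concentration required for complete inhibition of growth.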

Experiments:
Assay in all cases: NCI tumour cell line growth inhibition, 48 h
786-0 renal = system: 786-0 renal
A549 NSCLC = system: A549 NSCLC
ACHN renal = system: ACHN renal
CAKI-1 renal = system: CAKI-1 renal
CCRF-CEM leukemia = system: CCRF-CEM leukemia
COLO 205 colon = system: COLO 205 colon
DU-145 prostate = system: DU-145 prostate
EKVX NSCLC = system: EKVX NSCLC
HCC-2998 colon = system: HCC-2998 colon
HCT-116 colon = system: HCT-116 colon
HCT-15 colon = system: HCT-15 colon
HL-60(TB) leukemia = system: HL-60(TB) leukemia
HOP-62 NSCLC = system: HOP-62 NSCLC
HS 578T breast = system: HS 578T breast
HT29 colon = system: HT29 colon
IGROV1 ovarian = system: IGROV1 ovarian
K-562 leukemia = system: K-562 leukemia
KM12 colon = system: KM12 colon
M14 melanoma = system: M14 melanoma
MALME-3M melanoma = system: MALME-3M melanoma
MCF7 breast = system: MCF7 breast
MDA-MB-231 breast = system: MDA-MB-231 breast
MDA-MB-435 = system: MDA-MB-435
MDA-N = system: MDA-N
MOLT-4 leukemia = system: MOLT-4 leukemia
NCI-H226 lung = system: NCI-H226 lung
NCI-H23 lung = system: NCI-H23 lung
NCI-H460 lung = system: NCI-H460 lung
NCI-H522 lung = system: NCI-H522 lung
NCI/ADR-RES ovarian = system: NCI/ADR-RES ovarian
OVCAR-3 ovarian = system: OVCAR-3 ovarian
OVCAR-4 ovarian = system: OVCAR-4 ovarian
OVCAR-5 ovarian = system: OVCAR-5 ovarian
PC-3 prostate = system: PC-3 prostate
RPMI-8226 leukemia = system: RPMI-8226 leukemia
RXF 393 renal = system: RXF 393 renal
SF-268 CNS = system: SF-268 CNS
SF-295 CNS = system: SF-295 CNS
SF-539 CNS = system: SF-539 CNS
SK-MEL-2 melanoma = system: SK-MEL-2 melanoma
SK-MEL-28 melanoma = system: SK-MEL-28 melanoma
SK-MEL-5 melanoma = system: SK-MEL-5 melanoma
SK-OV-3 ovarian = system: SK-OV-3 ovarian
SN12C renal = system: SN12C renal
SNB-19 CNS = system: SNB-19 CNS
SNB-75 CNS = system: SNB-75 CNS
SR leukemia = system: SR leukemia
SW-620 colon = system: SW-620 colon
T-47D breast = system: T-47D breast
TK-10 renal = system: TK-10 renal
U251 CNS = system: U251 CNS
UACC-62 melanoma = system: UACC-62 melanoma
UO-31 renal = system: UO-31 renal

Measured: TGI

COc1cc([N+](=O)[O-])c(S(=O)(=O)O)cc1-[n+]1nc(C(=O)Nc2ccccc2)nn1-c1ccc([N+](=O)[O-])c(S(=O)(=O)[O-])c1
> 100 µM: 786-0 renal | A549 NSCLC | ACHN renal | CAKI-1 renal | CCRF-CEM leukemia | COLO 205 colon | DU-145 prostate | EKVX NSCLC | HCC-2998 colon | HCT-116 colon | HCT-15 colon | HL-60(TB) leukemia | HOP-62 NSCLC | HS 578T breast | HT29 colon | IGROV1 ovarian | K-562 leukemia | KM12 colon | M14 melanoma | MALME-3M melanoma | MCF7 breast | MDA-MB-231 breast | MDA-MB-435 | MDA-N | MOLT-4 leukemia | NCI-H226 lung | NCI-H23 lung | NCI-H460 lung | NCI-H522 lung | NCI/ADR-RES ovarian | OVCAR-3 ovarian | OVCAR-4 ovarian | OVCAR-5 ovarian | PC-3 prostate | RPMI-8226 leukemia | RXF 393 renal | SF-268 CNS | SF-295 CNS | SF-539 CNS | SK-MEL-2 melanoma | SK-MEL-28 melanoma | SK-MEL-5 melanoma | SK-OV-3 ovarian | SN12C renal | SNB-19 CNS | SNB-75 CNS | SR leukemia | SW-620 colon | T-47D breast | TK-10 renal | U251 CNS | UACC-62 melanoma | UO-31 renal
